Measurements: patent publication US6825230B2, “Spiro and dispiro 1,2,4-trixolane antimalarials” (Medicines for Malaria Venture MMV, priority 2002, dated 2004)
Values after ≈ are worked out from the molar mass of the structure shown. Like-named read-outs stand apart in the source and are kept apart here.

Tests used:
[1] = test system: ANKA strain of P. berghei; assay: Single dose STI in vivo screen in infected mice; set-up: species or system Plasmodium berghei; details: for Survival (days) 3 mg/kg SSV po / Activity (%) 3 mg/kg SSV po: single 3 mg/kg po in SSV; for Activity (%) 3 mg/kg SSV po / Activity (%) 10 mg/kg SSV po / Activity (%) 10 mg/kg po / Activity (%) 10 mg/kg sc: percent reduction in parasitemia on day 3; for Survival (days) 10 mg/kg SSV po: single 10 mg/kg po in SSV; for Survival (days) 10 mg/kg SSV po / Survival (days) 10 mg/kg po / Survival (days) 10 mg/kg sc: untreated 6-7 days; for Activity (%) 10 mg/kg SSV po: single 10 mg/kg po in standard suspending vehicle (SSV) on day 1 post-infection; for Survival (days) 10 mg/kg po: single 10 mg/kg po in 3% ethanol and 7% Tween 80; for Activity (%) 10 mg/kg po: single 10 mg/kg po in 3% ethanol and 7% Tween 80 on day 1 post-infection; for Survival (days) 10 mg/kg sc: single 10 mg/kg sc in 3% ethanol and 7% Tween 80; for Activity (%) 10 mg/kg sc: single 10 mg/kg sc in 3% ethanol and 7% Tween 80 on day 1 post-infection
Description: In the single dose STI in vivo screen, Moro SPF or NMRI mice infected with the ANKA strain of P. berghei (groups of three mice) were treated on day one post-infection with trioxolanes dissolved or suspended in 3% ethanol and 7% Tween 80. […] SSV consists of 0.5% w/v CMC, 0.5% v/v benzyl alcohol, 0.4% v/v Tween 80, and 0.9% w/v sodium chloride in water. Antimalarial activity was measured by percent reduction in parasitemia on day three post-infection and survival times compared to an untreated control group. Survival to day 30 post-infection is considered to be a cure. […] Other factors influencing antimalarial activity include the stability of carbon radicals formed by β-scission subsequent to the initial electron transfer to the peroxide bond and the influence of steric effects remote from the peroxide bond on the interactions between carbon radicals and potential drug targets.
Moro NMRI male mice (Fu Albino specific pathogen free) weighing 18±2 g were infected intravenously (i.v.) with 2×10^7 P. berghei ANKA strain-infected erythrocytes from donor mice on day 0 of the experiment. From donor mice with circa 30% parasitemia, heparinized blood was taken and diluted in physiological saline to 10^8 parasitized erythrocytes per ml. An aliquot (0.2 ml) of this suspension was injected i.v. into experimental and control groups of mice. […] Throughout the experiments, mice were kept in groups of three or five animals in Makrolon type II cages in an air-conditioned animal room at 22 to 23° C.
They were administered per os (p.o.) in a total volume of 0.01 ml per gram of mouse. The activity of the compound was determined by a variety of methods outlined in subsequent sections. Survival time was also recorded, and survival to day 30 post-infection was considered to be a cure.

[2] = test system: chloroquine-sensitive NF54 strain of P. falciparum; assay: In vitro antimalarial semiautomated microdilution assay ([3H]-hypoxanthine incorporation), NF54 strain; assay type: cell-based, Plasmodium falciparum; details: Plasmodium falciparum
Description: (§1) Various OZ compounds were tested by the semiautomated microdilution assay against intraerythrocytic forms of Plasmodium falciparum derived from asynchronous stock cultures.
(§2) Fifty percent inhibitory concentration (IC50) were estimated by Logit regression analysis.

[3] = test system: chloroquine-resistant K1 strain of P. falciparum; assay: In vitro antimalarial semiautomated microdilution assay ([3H]-hypoxanthine incorporation), K1 strain; assay type: cell-based, Plasmodium falciparum; details: Plasmodium falciparum, K1, 72 h, read-out: IC50 (ng/ml) K1, chloroquine-resistant K1 strain, 72 h incubation
Description: as §1, §2

Nc1ncccc1C(=O)NC[C@H]1CC[C@]2(CC1)OOC1(O2)C2CC3CC(C2)CC1C3 (stereo partly shown) [OZ284]
Survival (days) 3 mg/kg SSV po [1]: 7.8 days | Activity (%) 3 mg/kg SSV po [1]: 61% | Survival (days) 10 mg/kg SSV po [1]: 9.0 days | Activity (%) 10 mg/kg SSV po [1]: 97%

O=C(N1CCOCC1)N1CCC2(CC1)OOC1(O2)C2CC3CC(C2)CC1C3 (stereo not shown) [OZ188, Adamantane-2-spiro-3′-8′-(4′-morpholinylcarbonyl)-1′,2′,4′-trioxa-8′-azaspiro[4.5]decane]
Survival (days) 10 mg/kg po [1]: 8.7 days | Activity (%) 10 mg/kg po [1]: 93% | Survival (days) 10 mg/kg SSV po [1]: 10.0 days | Activity (%) 10 mg/kg SSV po [1]: 98% | Survival (days) 10 mg/kg sc [1]: 9.0 days | Activity (%) 10 mg/kg sc [1]: 99.87%

CCOC(=O)CNC[C@H]1CC[C@]2(CC1)OO[C@]1(O2)C2CC3CC(C2)CC1C3 [OZ290]
Survival (days) 3 mg/kg SSV po [1]: 7.0 days | Activity (%) 3 mg/kg SSV po [1]: 95% | Survival (days) 10 mg/kg SSV po [1]: 9.0 days | Activity (%) 10 mg/kg SSV po [1]: 99.64%

C1CCC(NC2CCC3(CC2)OOC2(O3)C3CC4CC(C3)CC2C4)CC1 (stereo not shown) [OZ162]
IC50 ([2]; NF54, 72 h, read-out: IC50 (ng/ml) NF54, chloroquine-sensitive NF54 strain, 72 h incubation): 0.71 ng/mL (≈ 1.96 nM) | IC50 [3]: 0.5 ng/mL (≈ 1.38 nM)

NS(=O)(=O)c1ccc(NC[C@H]2CC[C@]3(CC2)OO[C@]2(O3)C3CC4CC(C3)CC2C4)cc1 [OZ298]
Survival (days) 3 mg/kg SSV po [1]: 9.0 days | Activity (%) 3 mg/kg SSV po [1]: 98% | Survival (days) 10 mg/kg SSV po [1]: 9.4 days

NCCC(=O)NC[C@H]1CC[C@]2(CC1)OO[C@]1(O2)C2CC3CC(C2)CC1C3 [OZ336]
Survival (days) 3 mg/kg SSV po [1]: 9.6 days | Activity (%) 3 mg/kg SSV po [1]: 98% | Survival (days) 10 mg/kg SSV po [1]: 9.2 days

NC(=O)c1cncn1C[C@H]1CC[C@]2(CC1)OO[C@]1(O2)C2CC3CC(C2)CC1C3 [OZ321]
Survival (days) 3 mg/kg SSV po [1]: 9.8 days | Activity (%) 3 mg/kg SSV po [1]: 64% | Survival (days) 10 mg/kg SSV po [1]: 14.0 days

N=C(N)NC(=O)C[C@H]1CC[C@]2(CC1)OO[C@]1(O2)C2CC3CC(C2)CC1C3 [OZ341]
Survival (days) 3 mg/kg SSV po [1]: 7.0 days | Activity (%) 3 mg/kg SSV po [1]: 32% | Survival (days) 10 mg/kg SSV po [1]: 8.0 days | Activity (%) 10 mg/kg SSV po [1]: 97%

CCOC(=O)NC[C@H]1CC[C@]2(CC1)OO[C@]1(O2)C2CC3CC(C2)CC1C3 [OZ289]
Survival (days) 3 mg/kg SSV po [1]: 7.4 days | Activity (%) 3 mg/kg SSV po [1]: 92% | Survival (days) 10 mg/kg SSV po [1]: 13.4 days | Activity (%) 10 mg/kg SSV po [1]: 99.94% | IC50 ([2]; chloroquine-sensitive NF54 strain, 72 h incubation, read-out: IC50 (ng/ml) NF54): 0.56 ng/mL (≈ 1.53 nM)

c1cncc(NC[C@H]2CC[C@]3(CC2)OO[C@]2(O3)C3CC4CC(C3)CC2C4)c1 [OZ293]
Survival (days) 3 mg/kg SSV po [1]: 7.4 days | Activity (%) 3 mg/kg SSV po [1]: 77% | Survival (days) 10 mg/kg SSV po [1]: 8.8 days | Activity (%) 10 mg/kg SSV po [1]: 99.58%

O=C(Nc1ccccc1)N1CCC2(CC1)OOC1(O2)C2CC3CC(C2)CC1C3 (stereo not shown) [OZ102, Adamantane-2-spiro-3′-8′-(phenylaminocarbonyl)-1′,2′,4′-trioxa-8′-azaspiro[4.5]decane]
Survival (days) 10 mg/kg po [1]: 7.0 days | Activity (%) 10 mg/kg po [1]: 92% | Survival (days) 10 mg/kg SSV po [1]: 6.7 days | Activity (%) 10 mg/kg SSV po [1]: 73% | Survival (days) 10 mg/kg sc [1]: 19.7 days | Activity (%) 10 mg/kg sc [1]: 99.97%

NC(=O)[C@@H]1CCCN1C[C@H]1CC[C@]2(CC1)OO[C@]1(O2)C2CC3CC(C2)CC1C3 [OZ327]
Survival (days) 3 mg/kg SSV po [1]: 7.0 days | Activity (%) 3 mg/kg SSV po [1]: 72% | Survival (days) 10 mg/kg SSV po [1]: 9.8 days | Activity (%) 10 mg/kg SSV po [1]: 97%

Cn1ccnc1S(=O)(=O)C[C@H]1CC[C@]2(CC1)OO[C@]1(O2)C2CC3CC(C2)CC1C3 [OZ310]
Survival (days) 3 mg/kg SSV po [1]: 8.2 days | Activity (%) 3 mg/kg SSV po [1]: 38% | Survival (days) 10 mg/kg SSV po [1]: 7.8 days | Activity (%) 10 mg/kg SSV po [1]: 81%
